From US20210386787A1, “Hematopoietic Stem and Progenitor Cell Expansion System” (LIFE TECHNOLOGIES CORPORATION, priority 2018, published 2021)

Tested on: CD34^+ mPB cells
Experiment: Effect of garcinol and VPA on medium performance: 7-day expansion of CD34+ mPB cells in medium ± VPA or garcinol
Assay type: cell-based
Parameters: key to % CD34^+CD90^+ / Fold TNC / % CD34^+ / Fold CD34^+: (+) is baseline; (++) or greater improvement; (*) denotes no data (the cells died when garcinol was added to ACF)
Conditions: for % CD34^+CD90^+ / Fold TNC / % CD34^+ / Fold CD34^+: day 7, three donors
Method: In vitro expansion. Enriched CD34^+ cells from three donors of human mobilized peripheral blood (mPB, AllCells) were cultured in the following serum free media: HSC Medium (as provided herein), and the commercially available Stem Cell Growth Medium (SCGM, CellGenix GmbH), STEMSPAN™ Animal Component Free (ACF, STEMCELL Technologies), and STEMPRO™ 34 (Thermo Fisher Scientific). All media were supplemented with 100 ng/mL SCF, 100 ng/mL FLT-3L, 100 ng/mL TPO, 50 ng/mL IL-3, and 20 ng/mL IL-6 (all provided by Thermo Fisher Scientific). HSC expansion was initiated by culturing 5×10^3 CD34^+ cells/mL in a 48 well plate for 7 days in a humidified 37° C., 5% CO2 incubator. At day 7, total nucleated cell (TNC) number and % viability were assessed using a Countess II cell counter (Thermo Fisher Scientific), and cell phenotype was performed by flow cytometry.
Flow cytometry analysis. TNC were washed in phosphate-buffered saline (PBS) and incubated for 20 minutes at room temperature with LIVE/DEAD® Fixable Yellow stain in PBS. Cells were washed in flow cytometry staining buffer, and incubated with a cocktail of monoclonal antibodies against human cell surface antigens: CD34 PE-Cy7, CD90 APC, CD45RA Pacific Blue, for 30 minutes at 4° C. Cells were analyzed on a Attune NxT flow cytometer (Thermo Fisher Scientific), and FLOWJO® Software (version 7.6.5 Becton Dickinson).
Effect of small molecules to medium performance. To assess the contribution of valproic acid (VPA) and garcinol to competitor media, the small molecules were added to SCGM and STEMSPAN™ ACF either in combination or individually at the final concentration present in HSC Medium. To address whether there is a reduction in performance of HSC Medium when the small molecules were excluded from the formulation, either VPA or garcinol were removed during manufacture. CD34^+ mPB cells from three donors were cultured as described above (Example 1) in medium±VPA or garcinol, and compared with HSC medium, STEMSPAN™ ACF, SCGM or STEMSPAN™ ACF with STEMSPAN™ CD34^+ Expansion Supplement (10×). At day 7, cells were assessed for TNC, % viability, CD34^+, CD34^+CD90^+CD45RA^− cells as described above. To pool data points (CD34^+ expansion, TNC expansion) from the three donors, all conditions were normalized to SCGM media the standard error calculated. For pooling of % CD34^+ and % CD34^+CD90^+CD45RA^− data points in the three donors, the values were averaged and standard error calculated.

[1] = in HSC Medium made with the named small molecule(s) only
[2] = small molecule(s) added to SCGM
[3] = small molecule(s) added to ACF (STEMSPAN ACF)

Compound	% CD34^+CD90^+ [1]	Fold TNC [1]	% CD34^+ [2]	% CD34^+CD90^+ [2]	Fold CD34^+ [2]	Fold TNC [2]	performance (HSC expansion) (added to ACF)	% CD34^+CD90^+CD45RA^− (added to competitor media)	expansion of HSC / performance (added to competitor media (SCGM, STEMSPAN ACF))	% CD34^+ [1]	Fold CD34^+ [1]	% CD34^+ [3]	% CD34^+CD90^+ [3]
C=C(C)[C@@H](CC=C(C)C)C[C@@]12C[C@@H](CC=C(C)C)C(C)(C)[C@@](CC=C(C)C)(C(=O)C(C(=O)c3ccc(O)c(O)c3)=C1O)C2=O [Garcinol, garcinol]	+	+	+	+	+	+	–	–	–	–	–	–	–
CCCC(CCC)C(=O)O [VPA, valproic acid]	–	+	++	++	++	++	boosted performance to HSC Medium (with garcinol and VPA) levels	improved	improved expansion of HSC	++	+	++	++
